Legend:
[1] = test system: s.c. HER2(+) BT-474 tumors; assay: Dosimetry calculations (estimated absorbed doses, therapeutic index); conditions: optimized anti-HER2-DOTA-PRIT, from 1.0-336 h biodistribution
Source text: For each tissue, the non-decay-corrected time-activity concentration data were fit using Excel to a 1-component, 2-component, or more complex exponential function as appropriate, and analytically integrated to yield the cumulated activity concentration per unit administered activity (MBq-h/g per MBq). The ^177Lu equilibrium dose constant for non-penetrating radiations (8.49 g-cGy/MBq-h) was used to estimate the tumor-to-tumor and select organ-to-organ self-absorbed doses, assuming complete local absorption of the ^177Lu beta rays only, and ignoring the gamma ray and non-self dose contributions.

[2] = test system: s.c. HER2(−) MDA-MB-468 tumors; type: in vivo, mouse; conditions: 24 h p.i.
[3] = MDA-MB-468 HER2(−), PRIT + no CA, mean ± SEM

SMILES: Nc1ccc(CC2CN(CC(=O)[O-])CCN(CC(=O)[O-])CCN(CC(=O)[O-])CCN2CC(=O)[O-])cc1.[177Lu+3] (stereo not shown) [^177Lu-DOTA-Bn]
- Estimated absorbed dose, Blood [1]: 1.4 cGy/MBq
- Estimated absorbed dose, Bone [1]: 0.7 cGy/MBq
- Estimated absorbed dose, Heart [1]: 0.4 cGy/MBq
- Estimated absorbed dose, Kidneys [1]: 5.6 cGy/MBq
- Estimated absorbed dose, Large Intestine [1]: 0.8 cGy/MBq
- Estimated absorbed dose, Liver [1]: 3.3 cGy/MBq
- Estimated absorbed dose, Lung [1]: 1.3 cGy/MBq
- Estimated absorbed dose, Muscle [1]: 0.9 cGy/MBq
- Estimated absorbed dose, Small Intestine [1]: 0.4 cGy/MBq
- Estimated absorbed dose, Spleen [1]: 0.3 cGy/MBq
- Estimated absorbed dose, Stomach [1]: 0.3 cGy/MBq
- Estimated absorbed dose, Tumor [1]: 39.9 cGy/MBq
- tumor uptake in HER2(−) tumors vs HER2(+) BT-474 tumors, fold lower ([2]; PRIT, no CA): ~7 fold
- ^177Lu activity in Blood [2, 3]: 6.59 ± 1.31 % IA/g
- ^177Lu activity in Bone [2, 3]: 0.62 ± 0.17 % IA/g
- ^177Lu activity in Heart [2, 3]: 1.78 ± 0.29 % IA/g
- ^177Lu activity in Kidneys [2, 3]: 2.39 ± 0.54 % IA/g
- ^177Lu activity in Large Int. [2, 3]: 0.35 ± 0.06 % IA/g
- ^177Lu activity in Liver [2, 3]: 2.69 ± 0.35 % IA/g
- ^177Lu activity in Lungs [2, 3]: 2.44 ± 0.42 % IA/g
- ^177Lu activity in Muscle [2, 3]: 0.50 ± 0.14 % IA/g
- ^177Lu activity in Small Int. [2, 3]: 0.61 ± 0.11 % IA/g
- ^177Lu activity in Spleen [2, 3]: 1.06 ± 0.16 % IA/g
- ^177Lu activity in Stomach [2, 3]: 0.27 ± 0.04 % IA/g
- ^177Lu activity in Tumor [2, 3]: 2.75±0.17 % IA/g

— patent publication US20210017295A1, “BISPECIFIC BINDING AGENTS AND USES THEREOF” (MEMORIAL SLOAN KETTERING CANCER CENTER, priority 2018, published 2021)
